{
  "source": "patent US20180251431A1",
  "about": "(VERTEX PHARMACEUTICALS INCORPORATED, priority 2016, published 2018)",
  "key": {"[1]": {"tested_on": "healthy human fibroblasts", "test": "Reduction in C26:0 LPC in healthy human fibroblasts in vitro", "type": "cell-based", "details": "Healthy 2 Fibroblast, half maximal reduction in C26:0 LPC, each number a separate measurement"}, "[2]": {"tested_on": "ALD patient B-lymphocytes", "test": "Reduction in C26:0 LPC in ALD patient B-lymphocytes in vitro", "type": "cell-based", "details": "Homo sapiens, Lymphocyte, half maximal reduction in C26:0 LPC", "protocol": "Lysophosphatidylcholine (LPC) VLCFA were generated from straight chain VLCFA (SC-VLCFA) and were used clinically for newborn screening (Vogel et al., Mol. Genet. Metab. (2015) 114(4):599-603). In vitro efficacy studies were performed by measuring LPC VLCFA level (measured as LPC synthesis) in various cell lines, specifically in 1) human HEK cells, 2) patient derived cells, and 3) human microglia, which are disease relevant CNS cells. Compound 87's dose response relationships and IC50 values were measured in HEK cells, primary patient fibroblasts, immortalized patient lymphocytes, and a human microglial cell line. To measure LPC VLCFA synthesis, the foregoing cells were grown in the presence of ^13C labeled acetate (13C Labeled sodium acetate; Sigma Aldrich #282014) and Compound 87 (prepared in DMSO) for about 48 hours. Primary patient fibroblasts and immortalized primary patient lymphocytes were acquired from the Coriell Cell Repository at the Coriell Institute for Medical Research.\nImmortalized primary patient lymphocytes cell lines (cell lines GM13496, GM13497, and GM04674) were obtained from the Coriell Cell Repository at the Coriell Institute for Medical Research. Lymphocytes were cultured and plated at a desired cell density, such as 1×10^5 cells/well. […] The plate was sealed with a plate tape and put at −80° C. for further VLCFA extraction and VLCFA quantitation on LC-MS, as described below.\nVLCFA Extraction and Quantitation on LCMS:\nTreated cells were transferred to a polypropylene v-bottom plate and then centrifuged at 1690×g for 10 minutes. […] The plates were then sealed with pierceable capmats (Micronic MP53017) and stored at −20° C. until further analyzed using UPHLC/Mass Spectrometry Readout, as described above in example 2.1, which measured the integration of ^13C into lysophosphatidylcholine (LPC) indicated fatty acid elongation. Specifically, C16:0, C18:0, C20:0, C22:0, C24:0, and C26:0 LPC levels were measured via mass spectroscopy as described above and IC50 values indicated half maximal reduction in C26:0 LPC levels."}, "ABCD1 KO mice": {"tested_on": "ABCD1 KO mice", "test": "Reduction of C26:0 LPC, SC-VLCFA and acyl carnitine levels in ABCD1 KO brains", "type": "in vivo, mouse", "details": "for reduction of brain C26:0 acyl carnitine levels: after 2 months of treatment", "protocol": "To examine the effect of Compound 87 on VLCFA levels in the CNS, female ABCD1 KO mice were treated with vehicle, 1 or 10 mg/kg PO QD for 2 weeks (14 days; n=5 per group), 1 month (28 days; n=5 per group), 2 months (56 days; n=6 per group), or 3 months (84 days; n=6 per group). The brain samples used in this study were from the same mice used in the long term dosing study in ABCD1 knock-out mice and WT mice (see Example 2.3). Brain tissue samples were collected after 2, 4, 8, or 12 weeks of dosing with vehicle or Compound 87. Brain samples were frozen at −70° C. and were analyzed for VLCFA (LPC, SC-VLCFA, acyl-carnitines) via liquid chromatography-mass spectrometry (LCMS) as described below. The vehicle used was 2% TPGS and Compound 87 doses were prepared in 2% TPGS.\nLevels of VLCFA, including straight chain very long chain fatty acids (SC-VLCFA), acyl carnitines, and lysophosphatidylcholines (LPC), in the brain were examined. SC-VLCFA were expected to be rapidly incorporated into other forms and acyl carnitines were expected to be rapidly degraded, contributing to a short expected half-life for these forms. LPC was expected to integrate into membranes, contributing to a longer expected half-life.\nBrain Sample Preparation:\n(i) 3 volumes of MeOH was add to each sample; (ii) homogenized tissue samples with FastPrep (FP120) at 4.5 intensity for 25 seconds; and (iii) aliquoted tissue lysates.\nLPC and Acylcarnitine Extraction with CHCl3/MeOH Liquid-Liquid Extraction:\nAdded 1 mL MeOH, then added 1 mL […] to the brain tissue lysates; incubated 30 minutes at room temperature; added 1 mL CHCl3 and 0.75 mL H2O; incubated 30 minutes; centrifuged max for 10 minutes; transferred lower layer to new vials; organic phase was dried using Turbo-Vac. The resulting residue was re-constituted with MeOH.\n3-Step Chemical Derivatization of SC-VLCFA Using Dimethylaminoethanol (VLCFA-DMAE):\n(i) added oxalyl chloride (2 mol/l oxalyl chloride in CH2Cl2, 200 ul) to the dried mixture, incubated at 65° C. for 5 minutes; (ii) added 60 uL dimethylaminoethanol, incubated at 25° C. for 5 minutes and dried down; (iii) added 100 uL methyl iodide, incubated briefly and dried down. The resulting residue was re-constituted with ethanol (EtOH).\nLCMSMS Detection of VLCFA (e.g., Spingomyelin (SM) and LPC and Derivatized VLCFA (FA-DMAE)):\nLPC Detection: • Column: Discovery C18, 2.1×20 mm • Phase A: 50% MeOH/5 mM AF; Phase B: 2-propanol • MS: 4000 Qtrap operated in ESI MRM positive mode\nFA-DMAE Detection: • Column: Synergi Polar RP, 2×150 mm • Phase A: H2O/0.1% FA; Phase B: ACN/0.1% FA • MS: 4000 Qtrap operated in ESI MRM positive mode"}, "[3]": {"details": "1 mg/kg or 10 mg/kg PO QD, after 2 weeks of dosing"}},
  "data": [
    {"smiles": "O=C(Nc1ccn(-c2ccnc(F)c2)n1)C1(c2ccccc2F)CC1", "note": "[Compound 87, 1-(2-fluorophenyl)-N-[1-(2-fluoro-4-pyridyl)pyrazol-3-yl]cyclopropanecarboxamide]", "values": [
      {"measurement": "IC50", "setting": "[1]", "result": 6, "unit": "nM"},
      {"measurement": "IC50", "setting": "[1]; Homo sapiens, Fibroblast", "result": 9, "unit": "nM"},
      {"measurement": "IC50", "setting": "[2]; Patient Lymphocyte (CALD)", "result": 15, "unit": "nM"},
      {"measurement": "IC50", "setting": "[2]; Patient Lymphocyte (Het 1)", "result": 5, "unit": "nM"},
      {"measurement": "IC50", "setting": "[2]; Patient Lymphocyte (Het 2)", "result": 9, "unit": "nM"},
      {"measurement": "reduction in brain C26:0 LPC", "setting": "ABCD1 KO mice; 1 mg/kg PO QD, 2 months", "result": "~30", "unit": "%"},
      {"measurement": "reduction of brain C26:0 SC-VLCFA levels", "setting": "ABCD1 KO mice; 1 mg/kg PO QD, 2 months", "result": "about 30%"},
      {"measurement": "reduction in brain C26:0 LPC", "setting": "ABCD1 KO mice; 1 mg/kg PO QD, 3 months", "result": "~30", "unit": "%"},
      {"measurement": "reduction of brain C26:0 SC-VLCFA levels", "setting": "ABCD1 KO mice; 1 mg/kg PO QD, 3 months", "result": "about 50%"},
      {"measurement": "reduction of brain C26:0 acyl carnitine levels", "setting": "ABCD1 KO mice; 1 mg/kg PO QD", "result": "~50", "unit": "%"},
      {"measurement": "brain C24:0 LPC levels (normalized by C16:0 LPC levels)", "setting": "ABCD1 KO mice; 1 mg/kg or 10 mg/kg PO QD, 3 months", "result": "significant reduction"},
      {"measurement": "brain LPC levels", "setting": "ABCD1 KO mice; [3]", "result": "no changes"},
      {"measurement": "brain SC-VLCFA levels", "setting": "ABCD1 KO mice; [3]", "result": "no changes"},
      {"measurement": "reduction in brain C26:0 LPC", "setting": "ABCD1 KO mice; 10 mg/kg PO QD, 2 months", "result": "~40", "unit": "%"},
      {"measurement": "reduction of brain C26:0 SC-VLCFA levels", "setting": "ABCD1 KO mice; 10 mg/kg PO QD, 2 months", "result": "about 55%"},
      {"measurement": "reduction of brain C26:0 acyl carnitine levels", "setting": "ABCD1 KO mice; 10 mg/kg PO QD", "result": "~70", "unit": "%"},
      {"measurement": "brain C24:0 SC-VLCFA level", "setting": "ABCD1 KO mice; 10 mg/kg PO QD, after 3 months of dosing", "result": "significant reduction"}
    ]}
  ]
}
